Tests used:
[1] = test system: human NMD; test: CRISPR-based forward genetic screen of the GeCKO-LtCRISPR sgRNA library in "green" Fireworks cells (FACS enrichment rounds, deep sequencing of sgRNAs); format: cell-based; settings: for sgRNA abundance (%): deep sequencing reads for the sgRNA in the enriched cell population / all reads x 100, round 2, "green" Fireworks cells; for sgRNA enrichment (2nd round): reads in the enriched cell population / reads in total cells at the beginning of the 2nd round, measure of increased PTC(+) reporter fluorescence
Description: 1.8×10^8 (6×15 cm plates) “green” Fireworks cells were lentivirally transduced with the blasticidin-resistant GeCKO-LtCRISPR viral library (Shalem et al., Science 2014, 343:84-87) using 4.0 μm/ml of polybrene and propagated for 8-9 days in DMEM media supplemented with 10% FBS and 120 μm/ml hygromycin, 0.3 μg/ml puromycin and 3.0 μm/ml blasticidin. NMD-deficient cell populations (2×10^5 cells) were isolated from 4×10^8 transduced cells using a Bio-Rad S3e cell sorter (100 μm nozzle) and their genomic DNA was phenol-extracted. sgRNAs pools were PCR-amplified using RandomF (5′-[…] AACACCG-3′) (SEQ ID NO: 6) and RandomR (5′-[…] TAAAAC-3′) (SEQ ID NO: 7) primers and Gibson-cloned into the BsmBI-inearized LentiCRISPR (Shalem et al., Science 2014, 343:84-87) vector to obtain a lentiviral library (represented by 1.5×10^8 independent transformants) for the next enrichment round (FIG. 5C). Three rounds of GeCKO Lt-CRISPR library enrichment were conducted; 1.4×10^8 and 1.2×10^8 cells were sorted in the 2nd and 3rd rounds, respectively. sgRNAs obtained from the 2nd round were deep-sequenced and ranked (Table 1) according to their (i) overall abundance in the enriched sgRNA pool and (ii) enrichment over the starting sgRNA population in this round (since successful enrichment increases both of these numbers).
The Fireworks system was tested with the CRIPR-based knockout screening using the lentiviral GeCKO-lentiCRISPR sgRNA library (Shalem et al., Science 2014, 343:84-87), which contains 64,751 sgRNAs targeting 18,080 human genes. Ease of amplification of chromosomally-integrated sgRNAs by PCR allows multiple rounds of sgRNA library enrichment (FIG. 5C) as sgRNAs are iteratively re-transduced into the original Fireworks cell line after the each round of FACS selection in a SELEX-like (Tuerk and Gold, Science 1990, 249:505-510) manner. Fireworks-driven FACS throughput permits completion of one FACS cycle of genome-wide GeCKO library screening with nearly 800-fold library coverage in less than one hour. […] Importantly, sgRNA-specific effects are amplified, whereas cell-specific fluorescence noise is completely reset at the beginning of each sgRNA enrichment round (FIG. 5C), effectively eliminating false-positives arising from spontaneous and lentiviral insertion-induced (and therefore sgRNA-independent) mutations affecting reporters or the NMD pathway. An increase in the population of cells with a defect in NMD becomes evident during FACS rounds 2 and 3 of sgRNA library enrichment, as shown in FIG. 5D for the GeCKO-lentiCRISPR (Shalem et al., Science 2014, 343:84-87) library in the “green” Fireworks cell line. Here, sorting gates were chosen so as to collect no more than 0.16% of the negative cell population.
The pool of sgRNAs isolated from round 2 (FIG. 5C, 5D) of NMD-deficient population enrichment was deep sequenced to determine (i) the overall abundance of each sgRNA in the enriched pool and (ii) the enrichment factor for each surviving sgRNA over the starting sgRNA pool at this round. Here, the sgRNA enrichment factor serves as a measure of the increased fluorescence of the PTC(+) Fireworks reporter achieved by that sgRNA. The top 24 most abundant sgRNAs (of 64,751 sgRNAs originally present in the GeCKO library), which attained enrichment scores higher than 10, are listed in Table 1 along with their intended (Shalem et al., Science 2014, 343:84-87) gene targets.

[2] = test system: human NMD; test: FACS analysis of green fluorescence of the PTC(+) GFP reporter in the "red" Fireworks cell line after NMD inhibition; format: cell-based; settings: FIG. 7B
Source text: Sixteen of the most abundant individual sgRNAs (Table 1), whose enrichment scores in the 2nd round exceeded 10.0, were individually cloned into linearized Lt-CRISPR vector and lentivirally transduced into the “green” Fireworks cell line. Resulting cells were propagated for 11 days (or 21 days for AVEN sgRNA) and FACS-analyzed to observe an increase in […] fluorescence of the PTC(+) Fireworks reporter. Indeed, the vast majority of sgRNAs reproduced the shift when tested individually. RPS8 and AVEN were targeted with shRNAs (sh22: 5′[…] GTTTTTTG3′ (SEQ ID NO: 8) and sh01: 5′[…] CTTTTTTG3′ (SEQ ID NO: 9) for RPS8 and AVEN, respectively) cloned into the pLKO.1 vector (Moffat et al., Cell 2006, 124:1283-1298) that was used to transduce “green” and “red” Fireworks cells followed by FACS-analysis to observe effects of mRNA knockdown on fluorescence of the PTC(+) reporters.
The Fireworks approach provides the ability to perform forward genetic screens for human NMD factors at the speed of a FACS sorter. As designed, orthogonal Fireworks cell lines respond as expected to the introduction of a stop codon (PTC39) (Zhang et al., RNA 1998, 4:801-815) into the β-globin sequence by a 7- to 9-fold reduction in the reporter's fluorescence (FIGS. 1C, 1D and 2C). PTC39, which is upstream of the last intron in the β-globin pre-mRNA, induces NMD of the Fireworks reporter mRNA. […]

Substance: 29 (TAAGTTGTCAGAAAACATGA; expressed or natural sequence) [compound 29]
- sgRNA abundance (%) [1]: 0.054%
- sgRNA enrichment (2nd round) [1]: 17.1

Substance: 31 (GCGCCCAGCTGCCAACACCA; expressed or natural sequence) [compound 31]
- sgRNA abundance (%) [1]: 0.036%
- sgRNA enrichment (2nd round) [1]: 53.9

Substance: 25 (TGCTTTGTGTTTCTTTACAC; expressed or natural sequence) [compound 25]
- sgRNA abundance (%) [1]: 0.083%
- sgRNA enrichment (2nd round) [1]: 17.0

Substance: 30 (TCACATCGGCAGCCACCCGT; expressed or natural sequence) [compound 30]
- sgRNA abundance (%) [1]: 0.043%
- sgRNA enrichment (2nd round) [1]: 30.7

Substance: 27 (GAAAGACTGAGGAGCTGCTG; expressed or natural sequence) [compound 27]
- sgRNA abundance (%) [1]: 0.062%
- sgRNA enrichment (2nd round) [1]: 38.0

Substance: 24 (TCACGCTTCACGCTGACAGT; expressed or natural sequence) [compound 24]
- sgRNA abundance (%) [1]: 0.083%
- sgRNA enrichment (2nd round) [1]: 80.0

Substance: 18 (TGAGCACATACTCTTCACAC; expressed or natural sequence) [compound 18]
- sgRNA abundance (%) [1]: 0.180%
- sgRNA enrichment (2nd round) [1]: 102.2

Substance: 11 (AGGTCCACTCACCATTGGAG; expressed or natural sequence) [compound 11]
- sgRNA abundance (%) [1]: 0.888%
- sgRNA enrichment (2nd round) [1]: 113.9

Substance: 12 (AGTGTCCTCCTTAGCTCTGC; expressed or natural sequence) [compound 12]
- sgRNA abundance (%) [1]: 0.872%
- sgRNA enrichment (2nd round) [1]: 118.7

Substance: 26 (TTAGCATCAGCTACTGCCAG; expressed or natural sequence) [compound 26]
- sgRNA abundance (%) [1]: 0.076%
- sgRNA enrichment (2nd round) [1]: 14.2

Substance: 20 (CGCATTGAAAACGTTTGCCG; expressed or natural sequence) [compound 20]
- sgRNA abundance (%) [1]: 0.153%
- sgRNA enrichment (2nd round) [1]: 18.4

Substance: 33 (TACCTATGTGCGTCAGCAGC; expressed or natural sequence) [compound 33]
- sgRNA abundance (%) [1]: 0.023%
- sgRNA enrichment (2nd round) [1]: 49.5

Substance: 28 (TTCAAACTAGTAAGCAACAC; expressed or natural sequence) [compound 28]
- sgRNA abundance (%) [1]: 0.054%
- sgRNA enrichment (2nd round) [1]: 18.4

Substance: 14 (GTTCTCTGATAATCAGAATG; expressed or natural sequence) [compound 14]
- sgRNA abundance (%) [1]: 0.439%
- sgRNA enrichment (2nd round) [1]: 14.7

Substance: 15 (ACGCACCTGGTTGCTGGTAT; expressed or natural sequence) [compound 15]
- sgRNA abundance (%) [1]: 0.265%
- sgRNA enrichment (2nd round) [1]: 54.7

Substance: 17 (CTATGAGGGGGTCAGTGACA; expressed or natural sequence) [compound 17]
- sgRNA abundance (%) [1]: 0.232%
- sgRNA enrichment (2nd round) [1]: 18.3

Substance: 10 (TGATTACGTCCTCCACCTCG; expressed or natural sequence) [compound 10]
- sgRNA abundance (%) [1]: 1.081%
- sgRNA enrichment (2nd round) [1]: 47.0

Substance: 16 (GGATGACCAAGACGACATCA; expressed or natural sequence) [compound 16]
- sgRNA abundance (%) [1]: 0.262%
- sgRNA enrichment (2nd round) [1]: 18.3

Substance: 22 (TATGTCTTACCAGAAGCTGC; expressed or natural sequence) [compound 22]
- sgRNA abundance (%) [1]: 0.132%
- sgRNA enrichment (2nd round) [1]: 23.3

Substance: 21 (GGTACCTTCACTGGAGCCAC; expressed or natural sequence) [compound 21]
- sgRNA abundance (%) [1]: 0.132%
- sgRNA enrichment (2nd round) [1]: 16.1

Substance: 32 (AGCCCATAATGTACCAGTGC; expressed or natural sequence) [compound 32]
- sgRNA abundance (%) [1]: 0.033%
- sgRNA enrichment (2nd round) [1]: 14.4

Substance: 19 (CCGTGACATCACAGACCCGT; expressed or natural sequence) [compound 19]
- sgRNA abundance (%) [1]: 0.176%
- sgRNA enrichment (2nd round) [1]: 21.2

Substance: 13 (AGTGTCCTCCTTAGCTCTGC; expressed or natural sequence) [compound 13]
- sgRNA abundance (%) [1]: 0.440%
- sgRNA enrichment (2nd round) [1]: 33.8

Substance: CCGGCCGTGCCCTGAGGTTGGACGTCTCGAGACGTCCAACCTCAGGGCACG GTTTTTTG (guide CCGGCCGTGCCCTGAGGTTGGACGTCTCGAGACGTCCAACCTCAGGGCACGGTTTTTTG; expressed or natural sequence) [RPS8-targeting shRNA, shRNA targeting RPS8 cloned into the pLKO.1 vector]
- green fluorescence of the "red" Fireworks cell line after shRNA transduction [2]: increase in green fluorescence

Substance: 23 (CTCAACCGATTCCTTAGACG; expressed or natural sequence) [compound 23]
- sgRNA abundance (%) [1]: 0.125%
- sgRNA enrichment (2nd round) [1]: 19.5
